“Also recorded” adds a separate entry of the source.

One experiment concerns peptide-pulsed C1R-A03. The experiment is described as follows: IFN-gamma ELISPOT assay of peptide-induced CTLs (HLA-A*0301). It counts as cell-based, human. To be noted: CTLs induced from HLA-A*0301-positive donors, peptide-pulsed C1R-A03 vs control. The source says: Monocyte-derived dendritic cells (DCs) were used as the antigen-presenting cell to induce a cytotoxic T lymphocyte (CTL) response against peptides presented on human leukocyte antigens (HLAs). As described in the other sections, DCs were generated in vitro (Nakahara S et al., Cancer Res 2003, 63(14): 4112-8). Specifically, peripheral-blood mononuclear cells isolated from healthy volunteers (HLA-A*0301-positive) with the Ficoll-Paque plus solution (Pharmacia) were separated by attaching to plastic tissue culture dishes (Becton Dickinson) and concentrated as a monocyte fraction. The monocyte-concentrated population was cultured in the presence of 1000 IU/ml granulocyte macrophage colony-stimulating factor (R&D System) and 1000 IU/ml interleukin(IL)-4 (R&D System) in an AIM-V medium (Invitrogen) containing 2% heat-inactivated autologous serum (AS). After seven days of culturing, the cytokine-induced DCs were pulsed with 20 micro-g/ml each of the synthesized peptides in an AIM-V medium at 37 degrees C. for three hours in the presence of 3 micro-g/ml beta 2-microglobulin. The generated cells appeared to express on their cell surface DC-associated molecules such as CD80, CD83, CD86 and HLA class II (data not shown). Next, these peptide-pulsed DCs were inactivated by X-ray irradiation (20 Gy), and mixed in a 1:20 ratio with autologous CD8^+ T cells obtained by positive selection using the CD8 Positive Isolation Kit (Dynal). These culture products were seeded in a 48-well plate (Corning). Each well was made to contain 1.5×10^4 peptide-pulsed DCs, 3×10^5 CD8^+ T cells and 10 ng/ml IL-7 (R&D System) in 0.5 ml of the AIM-V/2% AS medium. Three days later, these culture products were added with a final concentration of 20 IU/ml IL-2 (CHIRON). On day 7 and day 14, T cells were further stimulated with peptide-pulsed autologous DCs. The DCs were prepared every time by the same method as above. On day 21, after the third peptide stimulation, CTLs were examined against the peptide-pulsed C1R-A03 by a human interferon (IFN)-gamma enzyme-linked immunospot (ELISPOT) assay (Tanaka H et al., Br J Cancer 2001, 84(1): 94-9; Umano Y et al., Br J Cancer 2001, 84(8): 1052-7; Uchida N et al., Clin Cancer Res 2004, 10(24): 8577-86; Suda T et al., Cancer Sci 2006, 97(5): 411-9; Watanabe T et al., Cancer Sci 2005, 96(8): 498-506).
Specifically, peptide-pulsed C1R-A03 (1×10^4 cells/well) was prepared as the stimulator cell. The induced CTLs, i.e., CTL lines and CTL clones, were used as the responder cell. The IFN-gamma ELISPOT assay and IFN-gamma ELISA were performed according to the manufacturer's manual.

The subject of experiment [1] is COS7 cells transfected with CDCA1 and HLA-A*0301. Kind of experiment: Specific CTL activity against target cells expressing CDCA1 and HLA-A*0301. To be noted: for specific CTL activity of CTL clones: COS7 cells transfected with both CDCA1 and HLA-A*0301; for specific CTL activity of CTL clones against control cells: COS7 cells transfected with either full-length CDCA1 or HLA-A*0301. It counts as cell-based, African green monkey. An excerpt:
A cDNA encoding the open-reading frame of a target gene or HLA-A*0301 was amplified by PCR. The PCR-amplified product was cloned into an expression vector. Either or both of the target gene-expressing vector and the HLA-A*0301-expressing vector were transfected into COS7, which is a cell line negative for the target gene and HLA, using Lipofectamine 2000 (Invitrogen) following the manufacturer's recommended protocol. Two days after transfection, the transfected cells were harvested using versene (Invitrogen), and used as the target cell for CTL activity assay (5×10^4 cells/well).
The CTL clones established against CDCA1-A03-9-219 (SEQ ID NO: 7) (a) and CDCA1-A03-10-400 (SEQ ID NO: 38) (b) were investigated for their ability to recognize target cells expressing CDCA1 and the HLA-A*0301 molecule. COS7 cells transfected with both full-length CDCA1 and the HLA-A*0301 gene (a specific model of target cells expressing CDCA1 and the HLA-A*0301 gene) were prepared as the target cell. COS7 cells transfected with either full-length CDCA1 or HLA-A*0301 were prepared as the control.

A further experiment deals with peptide-pulsed C1R-A11. The experiment is described as follows: IFN-gamma ELISA of CTL lines and CTL clones (HLA-A*1101). It counts as cell-based, human. To be noted: for IFN-gamma production of CTL clones: CTL clones by limiting dilution. The protocol:
CTLs were propagated in culture using methods similar to those disclosed by Riddell et al. (Walter E A et al., N Engl J Med 1995, 333(16): 1038-44; Riddell S R et al., Nat Med 1996, 2(2): 216-23). The CTLs were co-cultured in a total of 25 ml AIM-V medium containing 5% AS (AIM-V/5% AS) and 40 ng/ml anti-CD3 antibody with two types of Mitomycin C-treated human B lymphoblastoid cell lines at 5×10^6 cells/flask. One day after beginning of the culturing, 120 IU/ml IL-2 was added to the culture. On days 5, 8 and 11, a fresh AIM-V/5% AS medium containing 30 IU/ml IL-2 was added to the culture (Tanaka H et al., Br J Cancer 2001, 84(1): 94-9; Umano Y et al., Br J Cancer 2001, 84(8): 1052-7; Uchida N et al., Clin Cancer Res 2004, 10(24): 8577-86; Suda T et al., Cancer Sci 2006, 97(5): 411-9; Watanabe T et al., Cancer Sci 2005, 96(8): 498-506).
Dilution of CTLs was carried out to make 0.3, 1 and 3 cells/well in 96 round-bottomed microtiter plates (Nalge Nunc International). The CTLs were co-cultured with two types of Mitomycin C-treated human B lymphoblastoid cell lines at 1×10^4 cells/well in a total of 150 micro-l/well AIM-V/5% AS medium with 30 ng/ml anti-CD3 antibody and 125 IU/ml IL-2. Ten days later, IL-2 was added to the medium at 50 micro-l/well to reach a final concentration of 125 IU/ml. On day 14, the CTL activity was tested, and the CTL clones were propagated using the same method as described above (Uchida N et al., Clin Cancer Res 2004, 10(24): 8577-86; Suda T et al., Cancer Sci 2006, 97(5): 411-9; Watanabe T et al., Cancer Sci 2005, 96(8): 498-506).
Specifically, peptide-pulsed C1R-A11 (1×10^4 cells/well) was prepared as the stimulator cell. The induced CTLs, i.e., CTL lines and CTL clones, were used as the responder cell. The IFN-gamma ELISPOT assay and IFN-gamma ELISA were performed according to the manufacturer's manual.

Take “KIKLGIQQLK (a peptide derived from CDCA1) [SEQ ID NO: 38]”: the “peptide-specific CTL activity (IFN-gamma production)” value with peptide-pulsed C1R-A03 (listed as CDCA1-A03-10-400) is given as “potent IFN-gamma production; also recorded: significant specific CTL activity”. Moreover, in experiment [1] (listed as CDCA1-A03-10-400), the “specific CTL activity of CTL clones” value is recorded as “specific CTL activity; also recorded: potent CTL activity” and the “specific CTL activity of CTL clones against control cells” value is reported as “a significant specific CTL activity was not shown; also recorded: a significant specific CTL activity was not detected”.
“KTKRLNELK (a peptide derived from CDCA1) [SEQ ID NO: 7]”: in the experiment on peptide-pulsed C1R-A03 (listed as CDCA1-A03-9-219), the “peptide-specific CTL activity (IFN-gamma production)” value is “potent IFN-gamma production; also recorded: significant specific CTL activity”. Further, in experiment [1] (listed as CDCA1-A03-9-219), the “specific CTL activity of CTL clones” value is recorded as “specific CTL activity; also recorded: potent CTL activity” and the “specific CTL activity of CTL clones against control cells” value was “a significant specific CTL activity was not shown; also recorded: a significant specific CTL activity was not detected”. The “IFN-gamma production of CTL clones” value with peptide-pulsed C1R-A11 (peptide-pulsed C1R-A11, listed as CDCA1-A1-9-219) is “potent IFN-gamma production”. Besides, the “IFN-gamma production of CTL clones” value in the experiment with peptide-pulsed C1R-A11 (peptide-pulsed C1R-A11, listed as CDCA1-A11-9-219) is reported as “Potent IFN-gamma production”. Besides, the “IFN-gamma production of CTL lines” value in the experiment with peptide-pulsed C1R-A11 (CTL lines, peptide-pulsed vs non-pulsed target cells, HLA-A*1101) is recorded as “potent IFN-gamma production”.

Values taken from patent US10676514B2, “CDCA1-derived peptide and vaccine containing same” (ONCOTHERAPY SCIENCE, INC., priority 2014, dated 2020).
